Assay results from patent US20120149657A1, “2'-FLUORO ARABINO NUCLEOSIDES AND USE THEREOF” (Southern Research Institute, priority 2009, published 2012).
Marks after values point to notes of the source that are not given here.

Columns and labels:
Maximally tolerated dose = type: in vivo, mice; details: once per day for 9 consecutive days
Experimental: (§1) Because of its potent in vitro activity, methyl-F-araC (13) was evaluated for in vivo activity against three solid tumor xenografts (CAKI-1 renal, NCI-H23 NSCL, and LOX melanoma). Prior to these studies the maximally tolerated dose of methyl-F-araC was determined to be 3 mg/kg given once per day for 9 consecutive days. […] Female NCr-nu athymic mice were implanted subcutaneously with CAKI-1 tumor fragments. When tumors were approximately 100-250 mg, mice were treated ip with methyl-F-araC at 1, 2, or 3 mg/kg/dose (1 treatment each day for 9 consecutive days starting on day 14). Each treatment group contained 6 mice. The tumors were measured with calipers twice each week, and the weight (mg) was calculated. In this experiment there were 3 of 6 tumor-free survivors at the end of the experiment (62 days post implant) in each treatment group. Good results were also seen against NCI-H23 and LOX human tumor xenografts (Table 2).

SNB-7 CNS = assay: In vitro cytotoxicity (MTS, 72 h), SNB-7; type: cell-based; details: Homo sapiens; SNB-7, 72 hours of incubation
Experimental: (§2) The concentration of compound required to inhibit cell growth by 50% (IC50) after 72 hours of incubation was determined for each unprotected analog with eight human tumor cell lines (SNB-7 CNS, DLD-1 colon, CCRF-CEM leukemia, NCI-H23 NSCL, ZR-75-1 breast, LOX melanoma, PC-3 prostate, and CAKI-1 renal). […] The α-anomers of these compounds were also screened but were not found to be cytotoxic (data not shown).
(§3) All cell lines were grown in RPMI 1640 medium containing 10% fetal bovine serum, sodium bicarbonate, and 2 mM L-glutamine. For in vitro evaluation of the sensitivity of these cell lines to compounds, cells were plated in 96-well microtiter plates and then were exposed continuously to various concentrations of the compounds for 72 h at 37° C. Cell viability was measured using the MTS assay [3-(4,5-dimethylthiazol-2-yl)-5-(3-carboxymethoxyphenyl)-2-(4-sulfophenyl)-2H-tetrazolium, inner salt; MTS and an electron coupling reagent (phenazine ethosulfate; PES)]. Absorbance was read at 490 nm. The background absorbance mean was subtracted from the data followed by conversion to percent of control. The drug concentrations producing survival just above and below 50% level were used in a linear regression analysis to calculate the IC50.

NCI-H23 NSCL [1] = assay: In vitro cytotoxicity (MTS, 72 h), NCI-H23; type: cell-based; details: Homo sapiens; NCI-H23, 72 hours of incubation
Experimental: as §2, §3

CAKI-1 renal [2] = assay: In vitro cytotoxicity (MTS, 72 h), CAKI-1; type: cell-based; details: Homo sapiens; CAKI-1, 72 hours of incubation
Experimental: as §2, §3

[3] = tested on: eight human tumor cell lines; assay: In vitro cytotoxicity, panel of eight human tumor cell lines; type: cell-based
Experimental: as §2, §3

[4] = tested on: cells that lacked dCyd kinase; assay: Cytotoxicity in cells that lacked dCyd kinase; type: cell-based
From the text: (§4) CCRF-CEM cells are a T-cell leukemia cell line that is known to be very sensitive to nucleoside analogs.

LOX melanoma [5] = assay: LOX melanoma tumor xenograft, sc, in nude mice; type: in vivo, female NCr-nu athymic mice
Experimental: as §1
(§5) Xenografts were implanted sc on the flanks of female nude mice. When tumors were approximately 100-250 mg, they were treated ip with 3 or 4 mg/kg/dose of methyl-F-araC (q1d×9) and tumor size was measured twice weekly thereafter. Tumor-free survivors are the number of mice that were tumor-free at the end of the experiment/total number of mice in the treatment group. ^aThe difference in the median of times poststaging for tumors of the treated (T) and control (C) groups to double in mass three times. ^bThe difference in the median of times poststaging for tumors of the treated (T) and control (C) groups to double in mass two times. ^cThe difference in the median of times poststaging for tumors of the treated (T) and control (C) groups to double in mass four times.
(§6) Mice, obtained from various commercial suppliers, were housed in microisolator cages and were allowed commercial mouse food and water ad libitum. […]
(§7) Antitumor activity was assessed on the basis of delay in tumor growth (T-C). […] Tumors were measured in two dimensions (length and width) twice weekly, and the tumor weight was calculated using the formula (length×width^2)/2 and assuming unit density. […]

LOX melanoma [6] = assay: In vitro cytotoxicity (MTS, 72 h), LOX; type: cell-based; details: Homo sapiens, 72 hours of incubation
Experimental: as §2, §3

NCI-H23 NSCL [7] = assay: NCI-H23 NSCL tumor xenograft, sc, in nude mice; type: in vivo, female NCr-nu athymic mice
Experimental: as §1, §5, §6, §7

CCRF-CEM cells = assay: Intracellular triphosphate in CCRF-CEM cells; type: cell-based, human
Experimental: CCRF-CEM cells were incubated with methyl-F-araC, araC, and gemcitabine, and the amount of intracellular triphosphate (TP) of each compound was determined.
CCRF-CEM cell extracts were collected by centrifugation and resuspended in ice-cold 0.5 M perchloric acid. The samples were centrifuged at 12,000×g, and the supernatant fluid was neutralized and buffered by adding 4 M KOH and 1 M potassium phosphate, pH 7.4. KClO4 was removed by centrifugation, and a portion of the supernatant fluid was injected onto a strong anion exchange HPLC (Bio Basic anion exchange column, Thermo Electron Corp., Bellefonte, Pa.). Nucleotides were eluted with a 30-min linear salt and pH gradient from 6 mM ammonium phosphate (pH 2.8) to 900 mM ammonium phosphate (pH 6). Peaks were detected as they eluted from the column by their absorbance at 254 nm.

CAKI-1 renal [8] = assay: CAKI-1 renal tumor xenograft, sc, in nude mice; type: in vivo, female NCr-nu athymic mice
Experimental: as §1, §5
Mice, obtained from various commercial suppliers, were housed in microisolator cages and were allowed commercial mouse food and water ad libitum. The three human tumors were obtained from the Developmental Therapeutics Program Tumor Repository (Frederick, Md.) and were maintained in in vivo passage. Only tumor lines that tested negative for selected viruses were used. For the in vivo evaluation of the sensitivity of human tumors to the compounds, female NCr-nu athymic mice were implanted subcutaneously (sc) with 30-40 mg tumor fragments. In each experiment, methyl-F-araC (13) was tested at three dosage levels. […]
as §7

CCRF-CEM leukemia = assay: In vitro cytotoxicity (MTS, 72 h), CCRF-CEM; type: cell-based, human; details: for IC50: Homo sapiens, CCRF-CEM, 72 hours of incubation
Experimental: as §2, §4, §3

ZR-75-1 breast = assay: In vitro cytotoxicity (MTS, 72 h), ZR-75-1; type: cell-based; details: Homo sapiens; ZR-75-1, 72 hours of incubation
Experimental: as §2, §3

DLD-1 colon = assay: In vitro cytotoxicity (MTS, 72 h), DLD-1; type: cell-based; details: Homo sapiens; DLD-1, 72 hours of incubation
Experimental: as §2, §3

PC-3 prostate = assay: In vitro cytotoxicity (MTS, 72 h), PC-3; type: cell-based; details: Homo sapiens; PC-3, 72 hours of incubation
Experimental: as §2, §3

[9] = 3 mg/kg/dose ip q1d×9, tumor-free/total at end of experiment

For `C[C@]1(CO)O[C@@H](n2ccc(N)nc2=O)[C@@H](F)[C@@H]1O` [methyl-F-araC, 1-(2-Deoxy-2-fluoro-4-C-methyl-β-D-arabinofuranosyl)cytosine], the maximally tolerated dose (Maximally tolerated dose) was 3 mg/kg, the IC50 (SNB-7 CNS) was > 200 µM and the IC50 (NCI-H23 NSCL [1]) was 0.19 ± 0.01 µM. The IC50 (CAKI-1 renal [2]) was 0.54 ± 0.58 µM, the “cytotoxicity (in words)” value [3] was “significant cytotoxicity against four of the cell lines” and the “activity in cells that lacked dCyd kinase” value [4] was “neither compound was active”. For the same compound, the “T-C (days)” value (LOX melanoma [5]; 3 mg/kg/dose ip q1d×9, time to double in mass four times) was 15.0^c days, the Tumor-free survivors (LOX melanoma [5]; [9]) was 0/6 and the “in vivo activity (in words)” value (LOX melanoma [5]; LOX xenograft) was “Good results”. For the same compound, the IC50 (LOX melanoma [6]) was 0.24 ± 0.15 µM, the “T-C (days)” value (NCI-H23 NSCL [7]; 4 mg/kg/dose ip q1d×9, time to double in mass two times) was 18.4^b days and the Tumor-free survivors (NCI-H23 NSCL [7]; 4 mg/kg/dose ip q1d×9, tumor-free/total at end of experiment) was 0/5. The “in vivo activity (in words)” value (NCI-H23 NSCL [7]; NCI-H23 xenograft) was “Good results”, the “intracellular concentration of triphosphate” value (from here on “intracellular concentration”) (CCRF-CEM cells; human, 2 h, 100 nM) was 16±2 pmoles/10^6 cells and the “T-C (days)” value (CAKI-1 renal [8]; 3 mg/kg/dose ip q1d×9, time to double in mass three times) was >34.6^a days. For the same compound, the Tumor-free survivors (CAKI-1 renal [8]; [9]) was 3/6, the “tumor-free survivors in each treatment group” value (CAKI-1 renal [8]; 1, 2, or 3 mg/kg/dose ip, 9 days from day 14, 62 days post implant) was 3 of 6 and the “in vivo activity (in words)” value (CAKI-1 renal [8]; CAKI-1 tumors, FIG. 1) was “excellent activity”. For the same compound, the IC50 (CCRF-CEM leukemia) was 0.012 ± 0.003 µM, the “inhibition of CCRF-CEM cell growth with dCyd added to the culture medium” value (CCRF-CEM leukemia) was “prevented” and the IC50 (ZR-75-1 breast) was > 200 µM. The IC50 (DLD-1 colon) was > 200 µM and the IC50 (PC-3 prostate) was > 200 µM.

`C[C@]1(CO)O[C@@H](n2cnc3c(=O)[nH]c(N)nc32)[C@@H](F)[C@@H]1O` [Compound 22, 9-(2-Deoxy-2-fluoro-4-C-methyl-β-D-arabinofuranosyl)guanine] gave an IC50 (CCRF-CEM leukemia) of ~0.5 µM.

In the case of `C[C@]1(CO)O[C@@H](n2cnc3c(N)nc(N)nc32)[C@@H](F)[C@@H]1O` [Compound 21, 2,6-Diamino-9-(2-deoxy-2-fluoro-4-C-methyl-β-D-arabinofuranosyl)purine], the melting point is reported as 270 °C (dec.), the IC50 (CCRF-CEM leukemia) is reported as ~0.5 µM and the “cytotoxicity with addition of deoxycoformycin” value (CCRF-CEM leukemia; deoxycoformycin (adenosine deaminase inhibitor) added) is reported as “prevented”.

With `Nc1ccn([C@@H]2O[C@H](CO)[C@@H](O)[C@@H]2O)c(=O)n1` [araC] the “intracellular concentration” value (CCRF-CEM cells; 100 nM of compound, two hours, mean±SD, N=3) was 12±1 pmoles/10^6 cells and the “intracellular half-life of triphosphate” value (CCRF-CEM cells; CCRF-CEM cells, N=2) was 5.6 h.

For `C[C@]1(CO)O[C@@H](n2cnc3c(N)nc(Cl)nc32)[C@@H](F)[C@@H]1O` [Compound 24, 2-Chloro-9-(2-deoxy-2-fluoro-4-C-methyl-β-D-arabinofuranosyl)adenine], the “activity in cells that lacked dCyd kinase” value [4] was “neither compound was active”, the IC50 (CCRF-CEM leukemia) was ~0.5 µM and the “inhibition of CCRF-CEM cell growth with dCyd added to the culture medium” value (CCRF-CEM leukemia) was “prevented”.

In the case of `Nc1ccn([C@@H]2O[C@H](CO)[C@@H](O)C2(F)F)c(=O)n1` [gemcitabine], the “intracellular concentration” value (CCRF-CEM cells; human, 2 h, 100 nM) is reported as 17±3 pmoles/10^6 cells.
